These results are taken from patent publication US11384066B1, “Heterocyclic compounds useful as aurora a selective inhibitors” (Jacobio Pharmaceuticals Co., Ltd., priority 2020, dated 2022).

One series concerns the target Aurora B (Homo sapiens (Human), UniProt Q96GD4). Kind of series: Aurora B kinase assay (mobility shift assay). The conditions noted are these: ratio of Aurora B IC50 to Aurora A IC50. Format: biochemical. The protocol: (§1) Example A: Evaluation of Aurora a and Aurora B Inhibitory Effect—Kinase Assay
(§2) The inhibitory activities of a test compound against Aurora A and Aurora B were measured according to the following method.
(§3) The IC50 value of Aurora A and Aurora B kinase was performed by Sundia MediTech Co. Ltd. using Mobility shift assay.
(§4) • (1) Prepare a 1× kinase buffer [50 mM 4-(2-hydroxyethyl)-1-piperazineethanesulfonic acid (HEPES), PH 7.5, 0.01% Brij-35, 10 mM MgCl2, 2 mM dithiothreitol (DTT)]. • (2) Prepare compound:
(§5) The testing compound was dissolved with DMSO. The testing compound was diluted up to 100× final concentration in a 384-well plate. Transfer 250 nL of the compound dilution to a 384-well assay plate using Echo 550. 100% DMSO of 250 nL was added to the negative control well and the positive control well. • (3) Prepare a 2.5× enzyme solution using the above 1× kinase buffer. • (4) Add 10 μL of the 2.5× enzyme solution to the compound well and the positive control well of the 384-well assay plate. Add 10 μL of the 1× kinase buffer to the negative control well. • (5) The 384-well plate was centrifuged at 1000 rpm for 30 seconds and incubated at room temperature for 10 min. • (6) A mixture of ATP and Kinase substrate 21 with a final concentration of 25/15× was prepared by the 1× kinase buffer. • (7) Add 15 μL of the mixture of 25/15×ATP and kinase substrate solution 21 to start reaction. • (8) The 384-well plate was centrifuged at 1000 rpm for 30 seconds and incubated at room temperature. • (9) 30 μL of the stop and detection buffer was added to stop the kinase reaction and centrifuged at 1000 rpm for 30 seconds. • (10) Collect data on Caliper EZ ReaderII. Data Analysis:
(§6) Conversion %_sample is conversion rate data of samples. Conversion %_min is mean value of negative control (conversion rate data without enzyme activation). Conversion %_max is mean positive control (conversion rate data without compound).
(§7) The log of concentration is on the X axis, and the percentage inhibition is on the Y axis. Fit the Quantitative effect curves with log (inhibitor) vs. response—Variable slope in GraphPad Prism5 obtain IC50 values. Equation used is Y=Bottom+(Top−Bottom)/(1+10^((Log IC50−X)*HillSlope)).

Another series concerns NCI-H2171 cells. Kind of series: Cell proliferation assay (CellTiter-Glo), NCI-H2171. Format: cell-based. Particulars: Homo sapiens, NCI-H2171, 120 h, 5 days. The protocol: (§8) Example B: Cell Proliferation Assay
(§9) NCI-H2171 and NCI-H446 cell proliferation analysis were conducted by CellTiter-Glo (Promega, Cat #G1111). The cells will be harvested respectively during the logarithmic growth period and counted with hemocytometer. […] Adjust NCI-H2171 and NCI-H446 cells concentrations to 1.0×10^5 cells/mL with complete medium (RPMI-1640 medium supplemented with 10% (v/v) fetal bovine serum). 100 μL/cell suspensions were added to 96-well plates, and the final cell densities were 1.0×10^4 cells/well. The plate will be cultured overnight in 5% CO2 and 95% humidity at 37° C. The next day, the test compound was dissolved in DMSO as stock solution. Then the different concentrations of compound were added into 96-well plates. The plates will be cultured for 5 days, then measured by means of CellTiter-Glo assay. 50 μL/cell CellTiter-Glo reagent was added into 96-well plates. Shock incubation for 5 min and then stand incubation for 10 min at room temperature. Record the Luminosity values using an microplate spectrophotometer (Spark, Tecan). Fit the data using GraphPad 8.0 and obtain IC50 values.
(§10) Formula: Survival (%)=(Lumtest−Lummedia control)/(Lumcell control−Lummedia control)×100%
In general terms: ATP-based viability assays read luminescence as a measure of living cells.

A further series deals with Aurora A (Homo sapiens (Human), UniProt O14965). Kind of series: Aurora A kinase assay (mobility shift assay). It counts as biochemical. The method, then: as §1, §2, §3, §4, §5, §6, §7
Another series deals with NCI-H446 cells. Kind of series: Cell proliferation assay (CellTiter-Glo), NCI-H446. It counts as cell-based. Particulars: Homo sapiens, NCI-H446, 120 h, 5 days. The method, then: as §8, §9, §10
A further series can be described thus: PK in rat. Format: in vivo. The conditions noted are these: SD male rats. The protocol:
The compounds were dissolved into 10% DMSO, 30% PEG400, and 60% saline to obtain a solution. SD male rats were given the compound orally and intravenously. Then plasma samples were collected at 0 hour (pre-dose), 0.25, 0.5, 1, 2, 4, 7, 24 hours post-dose. Plasma drug concentration was detected by LC-MS/MS. Pharmacokinetic parameters were calculated using WinNonlin's software with non-compartmental model.

Aurora A, sequence (O14965 whole entry): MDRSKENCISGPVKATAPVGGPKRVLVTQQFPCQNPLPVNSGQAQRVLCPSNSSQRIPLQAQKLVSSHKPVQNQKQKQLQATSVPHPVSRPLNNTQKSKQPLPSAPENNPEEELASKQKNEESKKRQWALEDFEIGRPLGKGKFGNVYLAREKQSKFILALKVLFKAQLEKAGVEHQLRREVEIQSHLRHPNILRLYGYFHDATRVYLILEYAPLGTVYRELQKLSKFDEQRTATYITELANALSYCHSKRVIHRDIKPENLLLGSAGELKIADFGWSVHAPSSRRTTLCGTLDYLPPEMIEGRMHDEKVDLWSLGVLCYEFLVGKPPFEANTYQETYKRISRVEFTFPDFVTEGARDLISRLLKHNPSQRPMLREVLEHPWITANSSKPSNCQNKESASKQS
Aurora B, sequence (Q96GD4 whole entry): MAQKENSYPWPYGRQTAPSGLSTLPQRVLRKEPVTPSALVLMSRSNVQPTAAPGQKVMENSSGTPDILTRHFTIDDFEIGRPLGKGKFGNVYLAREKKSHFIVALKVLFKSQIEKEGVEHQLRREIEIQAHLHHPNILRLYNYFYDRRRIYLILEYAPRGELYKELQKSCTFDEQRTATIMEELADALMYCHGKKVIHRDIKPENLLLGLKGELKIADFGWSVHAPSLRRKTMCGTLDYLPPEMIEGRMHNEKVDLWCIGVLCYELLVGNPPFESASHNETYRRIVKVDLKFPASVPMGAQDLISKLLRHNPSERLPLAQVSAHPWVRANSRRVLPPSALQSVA

As for `CC[C@@H]1C[C@](Cc2nc(Nc3cc(C)[nH]n3)ccc2F)(C(=O)O)CCN1Cc1cccc(Cl)c1F` [Example 8, (2R,4R)-1-(3-chloro-2-fluorobenzyl)-2-ethyl-4-((3-fluoro-6-((5-methyl-1H-pyrazol-3-yl)amino)pyridin-2-yl)methyl) piperidine-4-carboxylic acid], the “IC50 Ratio Aur B/Aur A” value at Aurora B was determined as 1288. Further, the IC50 was found to be 75 nM with NCI-H2171 cells, 1.2 nM at Aurora A and 119 nM with NCI-H446 cells.
Take `Cc1cc(Nc2cc(F)cc(C[C@@]3(C(=O)O)CCN(Cc4cccc(Cl)c4F)[C@H](C)C3)n2)n[nH]1` [Example 30, (2R,4R)-1-(3-chloro-2-fluorobenzyl)-4-((4-fluoro-6-((5-methyl-1H-pyrazol-3-yl)amino)pyridin-2-yl)methyl)-2-methylpiperidine-4-carboxylic acid]: the IC50 with NCI-H2171 cells turned out to be 62 nM; in the series on NCI-H446 cells it was 128 nM.
Take `Cc1cc(Nc2cc(C)c(F)c(CC3(C(=O)O)CCN(Cc4cccc(F)c4F)CC3)n2)n[nH]1` [Example 52]: at Aurora B, the “IC50 Ratio Aur B/Aur A” value is listed as 1285. Besides, at Aurora A, the IC50 was determined as 1.3 nM.
Consider `Cc1cc(Nc2cc(C)c(F)c(C[C@@]3(C(=O)O)CCN(Cc4cccc(Cl)c4Cl)[C@H](C)C3)n2)n[nH]1` [Example 53, (2R,4R)-1-(2,3-dichloro-benzyl)-4-((3-fluoro-4-methyl-6-((5-methyl-1H-pyrazol-3-yl)-amino)pyridin-2-yl)methyl)-2-methylpiperidine-4-carboxylic acid], for which the “IC50 Ratio Aur B/Aur A” value on Aurora B is listed as 562. Further, the IC50 in the series on NCI-H2171 cells was 57 nM; at Aurora A it was 0.55 nM; in the series on NCI-H446 cells it was 154 nM.
Consider `Cc1cc(Nc2cc(C)c(F)c(CC3(C(=O)O)CCN(Cc4cccc(Cl)c4Cl)CC3)n2)n[nH]1` [Example 54], for which, at Aurora B, the “IC50 Ratio Aur B/Aur A” value is 2041. In addition, the IC50 at Aurora A stood at 0.43 nM.
Taken in the same sequence, the figures for `Cc1cc(Nc2cc(C)c(F)c(CC3(C(=O)O)CCN(Cc4c(F)ccc(Cl)c4F)CC3)n2)n[nH]1` [Example 55, 1-(3-chloro-2,6-difluoro-benzyl)-4-((3-fluoro-4-methyl-6-((5-methyl-1H-pyrazol-3-yl)-amino)pyridin-2-yl)methyl) piperidine-4-carboxylic acid] were 3835 and 0.88 nM.
In the case of `CCc1cc(Nc2cc(C)[nH]n2)nc(CC2(C(=O)O)CCN(Cc3cccc(Cl)c3F)CC2)c1F` [Example 66, 1-(3-chloro-2-fluorobenzyl)-4-((4-ethyl-3-fluoro-6-((5-methyl-1H-pyrazol-3-yl)amino)-pyridin-2-yl)methyl)piperidine-4-carboxylic acid], at Aurora B, the “IC50 Ratio Aur B/Aur A” value is recorded as 716. In addition, the IC50 at Aurora A was determined as 0.57 nM.
Take `Cc1cc(Nc2cc(C#N)c(F)c(C[C@@]3(C(=O)O)CCN(Cc4cccc(Cl)c4F)[C@H](C)C3)n2)[nH]n1` [Example 67, (2R,4R)-1-(3-chloro-2-fluorobenzyl)-4-((4-cyano-3-fluoro-6-((3-methyl-1H-pyrazol-5-yl)amino)pyridin-2-yl)methyl)-2-methylpiperidine-4-carboxylic acid]: the “IC50 Ratio Aur B/Aur A” value on Aurora B is 759. For the same molecule, the IC50 at Aurora A was found to be 1.6 nM.
On to `CC(=O)c1cc(Nc2cc(C)[nH]n2)nc(CC2(C(=O)O)CCN(Cc3cccc(Cl)c3F)CC2)c1F` [Example 69, 4-((4-acetyl-3-fluoro-6-((5-methyl-1H-pyrazol-3-yl)-amino)pyridin-2-yl)methyl)-1-(3-chloro-2-fluorobenzyl)-piperidine-4-carboxylic acid], for which the IC50 in the series on NCI-H2171 cells came to 41 nM; in the series with NCI-H446 cells, 87 nM.
Regarding `Cc1cc(Nc2nc(C[C@@]3(C(=O)O)CCN(Cc4cccc(Cl)c4F)[C@H](C)C3)c(F)c(Cl)c2F)n[nH]1` [Example 74], the “IC50 Ratio Aur B/Aur A” value on Aurora B is given as 3358. For the same molecule, the IC50 on Aurora A came to 0.67 nM.
Taken in the same sequence, the figures for `Cc1cc(Nc2nc(CC3(C(=O)O)CCN(Cc4cccc(Cl)c4F)CC3)cc(C)c2F)n[nH]1` [Example 79, 1-(3-chloro-2-fluorobenzyl)-4-((5-fluoro-4-methyl-6-((5-methyl-1H-pyrazol-3-yl)amino)-pyridin-2-yl)methyl)piper-idine-4-carboxylic acid] were 2036 and 0.61 nM.
With `Cc1cc(Nc2cc(S(C)(=O)=O)c(F)c(C[C@@]3(C(=O)O)CCN(Cc4cccc(Cl)c4F)[C@H](C)C3)n2)n[nH]1` [Example 81, (2R,4R)-1-(3-chloro-2-fluorobenzyl)-4-((3-fluoro-6-((5-methyl-1H-pyrazol-3-yl)amino)-4-(methylsulfonyl)pyridin-2-yl)methyl)-2-methylpiperidine-4-carboxylic acid], the “IC50 Ratio Aur B/Aur A” value at Aurora B was found to be 1353. The IC50 at Aurora A is 0.77 nM.
The like results for `Cc1cc(Nc2nc(C[C@@]3(C(=O)O)CCN(Cc4cccc(Cl)c4F)[C@H](C)C3)c(F)c(Cl)c2Cl)n[nH]1` [Example 84, (2R,4R)-1-(3-chloro-2-fluorobenzyl)-4-((4,5-dichloro-3-fluoro-6-((5-methyl-1H-pyrazol-3-yl)amino)pyridin-2-yl)methyl)-2-methylpiperidine-4-carboxylic acid] were, in that order, 4026 and 1.4 nM.
Taken in the same sequence, the figures for `Cc1cc(Nc2nc(C[C@@]3(C(=O)O)CCN(Cc4cccc(Cl)c4F)[C@H](C)C3)cc(C#N)c2F)n[nH]1` [Example 90, (2R,4R)-1-(3-chloro-2-fluorobenzyl)-4-((4-cyano-5-fluoro-6-((5-methyl-1H-pyrazol-3-yl)amino)pyridin-2-yl)methyl)-2-methylpiperidine-4-carboxylic acid] were 1479 and 0.54 nM.
Taken in the same sequence, the figures for `Cc1cc(Nc2nc(C[C@@]3(C(=O)O)CCN(Cc4cccc(Cl)c4F)[C@H](C)C3)c(F)cc2F)n[nH]1` [Example 91, (2R,4R)-1-(3-chloro-2-fluorobenzyl)-4-((3,5-difluoro-6-((5-methyl-1H-pyrazol-3-yl)amino)pyridin-2-yl)methyl)-2-methylpiperidine-4-carboxylic acid] were 451 and 1.1 nM.
Take `Cc1cc(Nc2nc(CC3(C(=O)O)CCN(Cc4cccc(Cl)c4F)CC3)c(F)cc2F)n[nH]1` [Example 92]: the “IC50 Ratio Aur B/Aur A” value at Aurora B was determined as 4393. For the same molecule, the IC50 at Aurora A came to 0.74 nM.
Regarding `Cc1[nH]nc(Nc2ccc(F)c(CC3(C(=O)O)CCN(Cc4cccc(Cl)c4F)C(C)C3)n2)c1C` (centres unmarked) [Example 102, 1-(3-chloro-2-fluorobenzyl)-4-((6-((4,5-dimethyl-1H-pyrazol-3-yl)-amino)-3-fluoropyridin-2-yl)-methyl)-2-methylpiperidine-4-carb-oxylic acid], the “IC50 Ratio Aur B/Aur A” value at Aurora B is recorded as 804. In addition, the IC50 at Aurora A amounted to 0.93 nM.
For `Cc1cc(Nc2ccc(F)c(C[C@@]3(C(=O)O)CCN(Cc4cccc(Cl)c4F)[C@H](C)C3)n2)n[nH]1` [LY3295668, reference compound], in the series “PK in rat” (IV: 3 mg/kg), the “CL” value worked out at 0.0912 L/h/kg and the “Vss” value was 0.29 L/kg. Also, in “PK in rat” (PO: 10 mg/kg), the “AUClast” value came to 91.211 µg·h/mL, the “Cmax” value amounted to 15.033 µg/mL and the “t1/2” value was 3.37 h. Moreover, in the series “PK in rat” (PO: 10 mg/kg vs IV: 3 mg/kg), the F% was found to be 81%.

The term IC50 denotes the concentration at which inhibition is half-maximal. A word on the Vss: it is the apparent volume that relates the amount in the body to the concentration in plasma or blood. A lower Vss goes with little distribution into tissue. The term Cmax denotes the maximum level reached in the sampled fluid or tissue.
